From a melting point compilation (Tetko et al.; mined from patent text by program, amines drawn as free bases though some values may be those of a salt)

Row | SMILES | melting point [°C]
1 | Clc1ccc2c(c1Cl)C=NCC2 | 196 to 200
2 | O=C(O)c1cn(-c2ccc(F)cc2)c(-c2ccc(O)cc2)cc1=O | 185 to 193
3 | CCOC(=O)Cc1ccc(SCc2ccc(NC(C)=O)cc2C(=O)O)cc1 | 170
4 | Nc1nc(Cl)cc(C#Cc2ccc3c(C(=O)Nc4cccc(C(F)(F)F)c4)cccc3c2)n1 | 171 to 175
5 | S=C=Nc1ccc(Nc2ccncc2)cc1 | 195 to 196
6 | CC(=O)NC[C@H]1CN(c2ccc(N3CCC(Cc4nnc(-c5ccccc5)o4)CC3)c(F)c2)C(=O)O1 | 199 to 200
7 | CCOC(=O)C1=C(C)NC(CO)=C(C(=O)OCC)C1c1ccccc1Cl (configuration not stated) | 143
8 | Cc1cc(NCC(C)C)c2[nH]nc(-c3ccccc3)c2n1 | 187 to 190
9 | O=C(O)CCc1oc(SC2CCCCC2)nc1-c1ccc(Cl)cc1 | 136 to 137
10 | OCCSSc1nc2ccccc2s1 | 65 to 68
11 | CCOC(=O)c1cn(CCC(C)C)c2nn(C)cc2c1=O | 105 to 106
12 | CCN(CC)C(=O)c1ccoc1-c1ccc(Cl)cc1 | 64 to 66
13 | CC1(C)CN(c2ncc(C(=O)N(CC3CC3)c3cc(C(F)(F)F)ccc3F)c(N)n2)C(=O)N1 | 188 to 189
14 | COc1ccc(-c2cc(CO)c(C)o2)cc1 | 62 to 64
15 | CCCCc1nc(=O)c2cc(C#N)ccc2[nH]1 | 243 to 245
16 | CCn1c(=O)[nH]c2cc3c(N4CCN(C(=O)Nc5ccc(Oc6ccccc6)cc5)CC4)ncnc3cc21 | 248 to 251
17 | COCc1nc2c(OC)ccc(C(=O)Nc3c(Cl)cncc3Cl)c2[nH]1 | 230 to 231
18 | O=C1CCC(c2ccc(NC(=O)CCNCCc3ccccc3)cc2)=NN1 | 130 to 132
19 | CNC(=O)c1cnc(Cl)c(Cl)c1 | 134 to 138
20 | O=C(O)Cc1ccc(NC(=O)C(COc2ccccc2Cl)NS(=O)(=O)c2ccc(I)cc2)cc1 (racemic) | 198 to 200
21 | O=C(N[C@H](Cc1ccc(C(F)(F)F)cc1)[C@@H](O)c1cccc2ccccc12)c1ccc(F)cc1 (racemic) | 194 to 195
22 | CC1N(C(=O)c2ccc(C(F)(F)F)cc2)CC(n2cncn2)OC1(Cn1cncn1)c1ccc(Cl)cc1Cl (configuration not stated) | 191 to 201
23 | Nc1ccc2c(C(F)(F)F)cc(C(F)(F)F)nc2n1 | 198 to 204
24 | Cc1c(S(=O)(=O)C(F)(F)F)cnn1-c1c(Cl)cc(C(F)(F)F)cc1Cl | 83 to 85

Row | SMILES | melting point [°C]
25 | O=C(CCc1cnoc1-c1ccccc1)Nc1ccc2ncccc2c1 | 170 to 171
26 | CS(=O)(=O)NC(=O)NCCCCC1CCSS1 (configuration not stated) | 125 to 127
27 | Cc1c(Cc2cc(Cl)cc(Cl)c2)c(C(F)(F)F)nn1CCO | 91 to 93
28 | CC(=O)OC1CCC2(C)C(CCC3C4CCC(C(C)=O)C4(C)CC(=O)C32)C1 (configuration not stated) | 130 to 133
29 | N#CC(c1ccc(C(O)C(Cc2cccc(OC(F)(F)C(F)F)c2)NC(=O)c2cccc3c2C=CCCC3)cc1)N1CCCCC1 (racemic) | 152 to 154
30 | CCC[C@H]1C(=O)N(S(=O)(=O)c2ccc3ccccc3c2)[C@H]2CCN(S(C)(=O)=O)[C@H]12 (relative stereo) | 257 to 260
31 | C=CC(C)(C)C(O)(COc1ccc(-c2ccccc2)cc1)Cn1cncn1 (configuration not stated) | 85 to 87
32 | Cc1nc(-c2ccc(OCCCc3ccccc3)cc2)no1 | 78.5 to 79
33 | CSc1nn2c(N3CCN(c4ccccc4)CC3)cc(C)nc2c1S(=O)(=O)c1ccccc1 | > 230
34 | CC1(C)C(=O)N(CCCl)C(=O)N1CCCl | 77 to 79
35 | CS(=O)(=O)c1ccc(-n2nc(C(F)(F)F)cc2-c2ccc(-c3ccco3)cc2F)cc1F | 156 to 160
36 | c1ccc(COCCCCOCc2ccccc2)cc1 | 18
37 | Cc1c(F)c(N2CCNC(C)C2)cc2c1C(=O)CCN2C1CC1 (configuration not stated) | 98 to 100
38 | CCC(=O)NCC[C@@H]1CCc2cc(Br)c(O)cc21 | 146 to 148
39 | CCn1cc(CN(C(=O)C2CCCc3ccc(OCc4ccccc4)cc32)c2ccc(C(C)C)cc2)cn1 (configuration not stated) | 100 to 101
40 | Fc1ccc(-c2csc(-c3cn([C@H]4CN5CCC4CC5)nn3)c2)cn1 | 136
41 | CC(C#CC1=C(C)C(=O)C(O)CC1(C)C)=CCO (configuration not stated) | 84 to 86
42 | COC(=O)c1c(NC(C)=O)sc2c1CCCC2 | 103 to 106
43 | CC(C)(C)C(=O)c1c[nH]c2ncc(-c3cccc(NS(=O)(=O)c4ccccc4)c3)nc12 | 217 to 219
44 | Cc1noc(CC(N)=O)n1 | 77 to 77.5
45 | C(=C\c1nc(COc2ccc(CCCn3ccnc3)cc2)co1)/c1ccco1 | 122 to 123
46 | OC(CCC(c1ccccc1)c1ccccc1)c1cncn1Cc1ccccc1 (configuration not stated) | 160 to 168
47 | CCc1cccc(C(C#N)c2nc(OC)cc(OC)n2)c1[N+](=O)[O-] (configuration not stated) | 113 to 114
48 | CCOC(=O)C=C(C)NC(=O)Nc1cc(C(=O)OC(C)C)c(Cl)cc1F | 147 to 150

Row | SMILES | melting point [°C]
49 | COC(=O)c1ccccc1Cc1cc2cc(Cl)ccc2n1S(=O)(=O)c1ccc2c(c1)C(C)(C)CO2 | 160
50 | CCCC(=O)c1cnc2c(OC)cccc2c1Nc1ccc(O)cc1C | 252 to 253
51 | COC(=O)c1cncc(N(C)C(=O)C(C)CSC(C)=O)c1 (configuration not stated) | 123 to 125
52 | O=C(NCC1CCCC1)NC1CCN(CC23CC(c4ccccc42)c2ccccc23)CC1 | 197 to 198
53 | COc1cc(NC(=O)Nc2ccccc2)c(O)c(C(C)(C)C)c1 | 147 to 149
54 | O=C(O)COc1ccnc2ccccc12 | 274 to 276
55 | O=[N+]([O-])c1ccc(CCN2CCC(N3CCc4ccccc43)CC2)cc1 | 95 to 97
56 | Cn1c(OCC(F)(F)C(F)F)n[nH]c1=O | 101
57 | CCCCC1=C(Cl)C(=O)c2ccccc2C1=O | 69 to 70
58 | COP(=O)(OC)C1OC(=O)c2ccccc21 (configuration not stated) | 95 to 96.5
59 | Cc1nc(-c2ccc(C(F)(F)F)cc2)oc1COc1ccc(CCC(=O)O)cc1 | 98 to 100
60 | Cc1ccc(-c2ccc3c(c2)C=C(C(=O)Nc2ccc(CN(C)C4CCOCC4)cc2)CC(c2ccccc2)O3)cc1 (configuration not stated) | 178 to 179
61 | COC(=O)[C@@H]1[C@@H](Cc2ccccc2)C[C@@H]2CC[C@H]1N2C | 79 to 80
62 | CCOC(=O)c1cc2c(nc1C)C(=Cc1ccco1)CCC2 | 119 to 120
63 | CC(C)c1nc2c(N)nc3ccccc3c2s1 | 163 to 165
64 | COCc1cc2c(NC(=S)N3Cc4ccccc4CC3CCO)cccc2cn1 (racemic) | 152
65 | CN(C(=O)C(F)(F)F)C(C(=O)O)c1ccc(Cl)cc1 (configuration not stated) | 117 to 118
66 | O=C1C(=Cc2cccnc2)N2CCC1CC2 | 113
67 | Fc1ccc(C(F)(F)C(F)(F)c2ccccc2)c(Br)c1 | 47 to 48
68 | Cc1nc(N)oc1-c1cccc2ccccc12 | 187 to 189
69 | CC(C)(C)OC(=O)N[C@@H]1C[C@H](CO)[C@@H](OC(=O)c2ccccc2)[C@H]1OC(=O)c1ccccc1 | 78 to 79
70 | O=[N+]([O-])c1cc2ccccc2c2nccnc12 | 163 to 165
71 | CCOC(=O)c1cn(CC)c2nc(N3CCN(CCO)CC3)ncc2c1=O | 172
72 | COc1cc(OC)c(C(=O)/C=C/C(=O)O)c(OC)c1 | 151 to 153
